# In patent publication US11235976B2, “Nanocarbon-iron composite system as well as composition, preparation method and use thereof” (Chongqing Lummy Pharmaceutical Co., LTD, priority 2017, dated 2022):
# Test system: HCT116 colon cancer cells
# Experiment: Cell experiment, cell survival rate
# Format: cell-based
# Conditions: iron preparation alone 13.65 μg/mL, 48 h
# Procedure: (§1) Cells growing in a log phase are collected, the concentration of the cell suspension is adjusted, 100 μL of cell suspension is added to each well and the cells are plated (edge wells are filled with sterile PBS) at a density of 1×10^3-10^4 cells/well. The cells are incubated for 24 hours at 37° C. under the condition of 5% CO2, a nanocarbon-iron solution having a concentration gradient (nanocarbon content: 125, 62.5, 15.63 and 3.91 μg/mL; and ferric ion content: 13.65, 6.83, 1.71 and 0.43 μg/mL) is added, and three sub-wells are set. Then the cells are incubated for 48 hours at 37° C. under the condition of 5% CO2. 10 μL of CCK8 solution is added to each well and then the cells are continuously incubated for 2 hours. The absorbance of each well is measured at OD=450 nm with the microplate reader. In addition, a negative control group, nanocarbon control groups having the same concentration and iron preparation control groups having the same concentration are set.
# as §1, with “and 1” for “100”, “of a 6-well plate” for “and the cells are plated (edge wells are filled with sterile PBS)”, “3×10^4” for “1×10^3-10^4”, “1.71,” for “1.71 and”, “The” for “10 μL of CCK8 solution is added to each well and then the”, “trypsinized and counted.” for “continuously incubated for 2 hours. The absorbance of each well is measured at OD=450 nm with the microplate reader.”
row,Substance,Cell Survival Rate [%]
1,ferrous gluconate,98.67

# Test system: murine liver cancer H22 cells
# Experiment: Cell experiment, cell survival rate
# Format: cell-based
# Conditions: iron preparation alone 0.43 μg/mL, 48 h
# Procedure: as §1
# as §1, with “and 1” for “100”, “of a 6-well plate” for “and the cells are plated (edge wells are filled with sterile PBS)”, “3×10^4” for “1×10^3-10^4”, “1.71,” for “1.71 and”, “The” for “10 μL of CCK8 solution is added to each well and then the”, “trypsinized and counted.” for “continuously incubated for 2 hours. The absorbance of each well is measured at OD=450 nm with the microplate reader.”
row,Substance,Cell Survival Rate [%]
1,ferrous gluconate,100

# Same assay, conditions: iron preparation alone 1.71 μg/mL, 48 h
row,Substance,Cell Survival Rate [%]
1,ferrous gluconate,100

# Same assay, conditions: iron preparation alone 6.83 μg/mL, 48 h
row,Substance,Cell Survival Rate [%]
1,ferrous gluconate,100

# Same assay, conditions: iron preparation alone 13.65 μg/mL, 48 h
row,Substance,Cell Survival Rate [%]
1,ferrous gluconate,96.14

# Test system: TPC-1 thyroid cancer cells
# Experiment: Cell experiment, cell survival rate
# Format: cell-based
# Conditions: iron preparation alone 0.43 μg/mL, 48 h
# Procedure: as §1
# as §1, with “and 1” for “100”, “of a 6-well plate” for “and the cells are plated (edge wells are filled with sterile PBS)”, “3×10^4” for “1×10^3-10^4”, “1.71,” for “1.71 and”, “The” for “10 μL of CCK8 solution is added to each well and then the”, “trypsinized and counted.” for “continuously incubated for 2 hours. The absorbance of each well is measured at OD=450 nm with the microplate reader.”
row,Substance,Cell Survival Rate [%]
1,ferrous gluconate,100

# Same assay, conditions: iron preparation alone 1.71 μg/mL, 48 h
row,Substance,Cell Survival Rate [%]
1,ferrous gluconate,100

# Same assay, conditions: iron preparation alone 6.83 μg/mL, 48 h
row,Substance,Cell Survival Rate [%]
1,ferrous gluconate,100

# Same assay, conditions: iron preparation alone 13.65 μg/mL, 48 h
row,Substance,Cell Survival Rate [%]
1,ferrous gluconate,98.34

# Test system: A549 lung cancer cells
# Experiment: Cell experiment, cell survival rate
# Format: cell-based
# Conditions: iron preparation alone 0.43 μg/mL, 48 h
# Procedure: as §1
# as §1, with “and 1” for “100”, “of a 6-well plate” for “and the cells are plated (edge wells are filled with sterile PBS)”, “3×10^4” for “1×10^3-10^4”, “1.71,” for “1.71 and”, “The” for “10 μL of CCK8 solution is added to each well and then the”, “trypsinized and counted.” for “continuously incubated for 2 hours. The absorbance of each well is measured at OD=450 nm with the microplate reader.”
row,Substance,Cell Survival Rate [%]
1,ferrous gluconate,100

# Same assay, conditions: iron preparation alone 1.71 μg/mL, 48 h
row,Substance,Cell Survival Rate [%]
1,ferrous gluconate,100

# Same assay, conditions: iron preparation alone 6.83 μg/mL, 48 h
row,Substance,Cell Survival Rate [%]
1,ferrous gluconate,100

# Same assay, conditions: iron preparation alone 13.65 μg/mL, 48 h
row,Substance,Cell Survival Rate [%]
1,ferrous gluconate,97.31

# Test system: H22 metastatic lymph nodes
# Experiment: Lymph node metastasis inhibition experiment
# Format: in vivo, Kunming mouse
# Conditions: popliteal lymph nodes
# Procedure: (§2) Milky white and thick ascites is extracted from the H22 tumor-bearing mice, the concentration is adjusted to be 3×10^7 cells/mL, 0.05 mL of cell suspension (about 1.5×10^6 cells) is inoculated subcutaneously into the left hind foot pads of each Kunming mouse, and thus a lymph node metastasis mouse model is obtained. The mice are treated when the diameter of the tumor reaches 6-8 mm and there is no ulcer and necrosis. The mice are randomly divided into four groups (10 mice per group): a negative control group (0.9% sodium chloride injection), a nanocarbon control group, an iron preparation control group and a nanocarbon-iron suspension experimental group. 10 days after inoculation, the mice are killed, and popliteal lymph nodes are collected, weighed and fixed for pathological examination.
row,Substance,Weight of Lymph Node [mg]
1,ferrous gluconate,57.19 ± 15.92

# Test system: subcutaneous transplantation tumors of 9 types of cancer cells
# Experiment: Tumor growth inhibition experiments, subcutaneous transplantation tumors
# Format: in vivo, mice
# Conditions: FIGS. 4-39
# Procedure: Cells growing in a log phase are collected, the concentration of the cell suspension is adjusted to 3×10^7 cells/mL, and the cell suspension is inoculated subcutaneously into the right upper extremities of nude mice at the inoculation dosage of 0.1 mL (about 3×10^6 cells) per mouse. When the average tumor volume of the inoculated mice reaches 100 mm^3, the tumor-bearing mice are randomly divided into the following groups (8 nude mice per group): a negative control group (0.9% sodium chloride injection), a nanocarbon control group, an iron preparation control group, a nanocarbon-iron suspension experimental group, and a cis-platinum control group (intraperitoneal injection at the dosage of 5 mg/kg). The above various drugs are injected into the tumors. The tumor volume changes are recorded, and the formula for calculating the volume is Volume=(length×the square of width)/2.
# Milky white and thick ascites is extracted from the H22 tumor-bearing mice, the concentration of the cell suspension is adjusted to be 3×10^7 cells/mL, 0.1 mL of cell suspension (about 3×10^6 cells) is inoculated subcutaneously into the right upper extremity of each of Kunming mice. When the average tumor volume of the inoculated mice reaches 100 mm^3, the tumor-bearing mice are randomly divided into the following groups (8 mice per group): a negative control group (0.9% sodium chloride injection), a nanocarbon control group, an iron preparation control group, a nanocarbon-iron suspension experimental group, and a cis-platinum control group (intraperitoneal injection at the dosage of 5 mg/kg). The above various drugs are injected into the tumors. The tumor volume changes are recorded, and the formula for calculating the volume is Volume=(length×the square of width)/2.
row,Substance,inhibition effect on growth of 9 types of tumors
1,ferrous gluconate,do not have an inhibition effect

# Test system: lymph node metastasis of 9 types of tumor cells
# Experiment: Lymph node metastasis inhibition experiment, summary
# Format: in vivo, mice
# Conditions: not given
# Procedure: as §2, with “Cells growing in a log phase are collected,” for “Milky white and thick ascites is extracted from the H22 tumor-bearing mice,”, “concentration of the cell suspension” for “concentration”, “to” for “to be”, “the” for “0.05 mL of”, “suspension” for “suspension (about 1.5×10^6 cells)”, “nude mouse at the inoculation volume of 0.05 mL (about 1.5×10^6 cells)” for “Kunming mouse,”
# as §2
row,Substance,inhibition effect on the metastatic lymph nodes
1,ferrous gluconate,do not have an inhibition effect

# Test system: Hela metastatic lymph nodes
# Experiment: Lymph node metastasis inhibition experiment
# Format: in vivo, nude mouse
# Conditions: popliteal lymph nodes
# Procedure: as §2, with “Cells growing in a log phase are collected,” for “Milky white and thick ascites is extracted from the H22 tumor-bearing mice,”, “concentration of the cell suspension” for “concentration”, “to” for “to be”, “the” for “0.05 mL of”, “suspension” for “suspension (about 1.5×10^6 cells)”, “nude mouse at the inoculation volume of 0.05 mL (about 1.5×10^6 cells)” for “Kunming mouse,”
row,Substance,Weight of Lymph Node [mg]
1,ferrous gluconate,32.14 ± 21.36

# Test system: SMMC-7721 metastatic lymph nodes
# Experiment: Lymph node metastasis inhibition experiment
# Format: in vivo, nude mouse
# Conditions: popliteal lymph nodes
# Procedure: as §2, with “Cells growing in a log phase are collected,” for “Milky white and thick ascites is extracted from the H22 tumor-bearing mice,”, “concentration of the cell suspension” for “concentration”, “to” for “to be”, “the” for “0.05 mL of”, “suspension” for “suspension (about 1.5×10^6 cells)”, “nude mouse at the inoculation volume of 0.05 mL (about 1.5×10^6 cells)” for “Kunming mouse,”
row,Substance,Weight of Lymph Node [mg]
1,ferrous gluconate,58.97 ± 19.63

# Test system: TPC-1 metastatic lymph nodes
# Experiment: Lymph node metastasis inhibition experiment
# Format: in vivo, nude mouse
# Conditions: popliteal lymph nodes
# Procedure: as §2, with “Cells growing in a log phase are collected,” for “Milky white and thick ascites is extracted from the H22 tumor-bearing mice,”, “concentration of the cell suspension” for “concentration”, “to” for “to be”, “the” for “0.05 mL of”, “suspension” for “suspension (about 1.5×10^6 cells)”, “nude mouse at the inoculation volume of 0.05 mL (about 1.5×10^6 cells)” for “Kunming mouse,”
row,Substance,Weight of Lymph Node [mg]
1,ferrous gluconate,40.16 ± 9.03

# Test system: HCT116 metastatic lymph nodes
# Experiment: Lymph node metastasis inhibition experiment
# Format: in vivo, nude mouse
# Conditions: popliteal lymph nodes
# Procedure: as §2, with “Cells growing in a log phase are collected,” for “Milky white and thick ascites is extracted from the H22 tumor-bearing mice,”, “concentration of the cell suspension” for “concentration”, “to” for “to be”, “the” for “0.05 mL of”, “suspension” for “suspension (about 1.5×10^6 cells)”, “nude mouse at the inoculation volume of 0.05 mL (about 1.5×10^6 cells)” for “Kunming mouse,”
row,Substance,Weight of Lymph Node [mg]
1,ferrous gluconate,55.18 ± 20.12

# Test system: SGC-7901 metastatic lymph nodes
# Experiment: Lymph node metastasis inhibition experiment
# Format: in vivo, nude mouse
# Conditions: popliteal lymph nodes
# Procedure: as §2, with “Cells growing in a log phase are collected,” for “Milky white and thick ascites is extracted from the H22 tumor-bearing mice,”, “concentration of the cell suspension” for “concentration”, “to” for “to be”, “the” for “0.05 mL of”, “suspension” for “suspension (about 1.5×10^6 cells)”, “nude mouse at the inoculation volume of 0.05 mL (about 1.5×10^6 cells)” for “Kunming mouse,”
row,Substance,Weight of Lymph Node [mg]
1,ferrous gluconate,52.14 ± 17.43

# Test system: MDA-MB-231 metastatic lymph nodes
# Experiment: Lymph node metastasis inhibition experiment
# Format: in vivo, nude mouse
# Conditions: popliteal lymph nodes
# Procedure: as §2, with “Cells growing in a log phase are collected,” for “Milky white and thick ascites is extracted from the H22 tumor-bearing mice,”, “concentration of the cell suspension” for “concentration”, “to” for “to be”, “the” for “0.05 mL of”, “suspension” for “suspension (about 1.5×10^6 cells)”, “nude mouse at the inoculation volume of 0.05 mL (about 1.5×10^6 cells)” for “Kunming mouse,”
row,Substance,Weight of Lymph Node [mg]
1,ferrous gluconate,40.19 ± 20.69

# Test system: A549 metastatic lymph nodes
# Experiment: Lymph node metastasis inhibition experiment
# Format: in vivo, nude mouse
# Conditions: popliteal lymph nodes
# Procedure: as §2, with “Cells growing in a log phase are collected,” for “Milky white and thick ascites is extracted from the H22 tumor-bearing mice,”, “concentration of the cell suspension” for “concentration”, “to” for “to be”, “the” for “0.05 mL of”, “suspension” for “suspension (about 1.5×10^6 cells)”, “nude mouse at the inoculation volume of 0.05 mL (about 1.5×10^6 cells)” for “Kunming mouse,”
row,Substance,Weight of Lymph Node [mg]
1,ferrous gluconate,47.58 ± 20.34

# Test system: SKOV3 metastatic lymph nodes
# Experiment: Lymph node metastasis inhibition experiment
# Format: in vivo, nude mouse
# Conditions: popliteal lymph nodes
# Procedure: as §2, with “Cells growing in a log phase are collected,” for “Milky white and thick ascites is extracted from the H22 tumor-bearing mice,”, “concentration of the cell suspension” for “concentration”, “to” for “to be”, “the” for “0.05 mL of”, “suspension” for “suspension (about 1.5×10^6 cells)”, “nude mouse at the inoculation volume of 0.05 mL (about 1.5×10^6 cells)” for “Kunming mouse,”
row,Substance,Weight of Lymph Node [mg]
1,ferrous gluconate,33.57 ± 5.94
